# US20060188501A1, “Diagnostic and therapeutic agents for rheumatoid arthritis” (Kyowa Hakko Kogyo Co., Ltd., priority 2000, published 2006)
# System: Synoviocytes derived from a rheumatoid arthritis patient
# Assay: Growth of synoviocytes measured by MTT assay
# Type: cell-based, human
# Settings: genistein 1.5, 3, 6, 12.5 and 25 μg/ml, 7 days culture, FIG. 2
# Procedure: That is, synoviocytes obtained from a rheumatoid arthritis patient by surgery were minced, followed by enzyme treatment in RPMI1640 medium containing collagenase (4 mg/ml) at 37° C. for 4 hours to loosen the cells. The obtained cells were cultured in a growth medium (RPMI1640 containing 10% fetal calf serum) in a humidified CO2 incubator (5% CO2), with replacement of the growth medium at intervals of 3 to 4 days. When the cells grew to be subconfluent, the cells were subcultured at the ratio of 1:2 to 1:4 (that is, the cells were collected, transferred into other culture flasks in 1/2 to 1/4 portions and cultured in a fresh growth medium). Subculturing was repeated for 7 to 15 passages and the resulting cells were used in the following experiments.
# The growth of synoviocytes was measured by the assay using MTT [3,(4,5-dimethylthiazol-2-yl)2,5-diphenyl-tetrazolium bromide]
# Synoviocytes derived from a rheumatoid arthritis patient which were prepared in the same manner as in Example 1 were seeded on a 96-well microplate in an amount of 5×10^3 cells/well and precultured in the growth medium at 37° C. overnight. […] Then, 100 μl of dimethyl sulfoxide was added to dissolve the fomazan complex and the absorbance at the wavelength of 590 nm was measured with 96-well multiscanner Immno-Mini (Japan Inter Med) as the degree of cell growth. […]
compound,measurement,value
O=c1c(-c2ccc(O)cc2)coc2cc(O)cc(O)c12 [genistein],"growth of synoviocytes (absorbance at 590 nm, MTT)",inhibited in a manner dependent on the genistein concentration
